Source: US20240050359A1, “COSMETIC USES OF A HIPPOPHAE RHAMNOIDES CAKE HYDROLYSATE” (BASF Beauty Care Solutions France SAS, priority 2020, published 2024)

What was measured:
Assay type in all cases: cell-based
[1] = test system: fibroblasts from the papilla of human hair follicles; assay: Amount of DNA in papilla fibroblasts grown as aggregates; settings: capsaicin 10 μM
Protocol: Materials and method: A suspension composed of fibroblasts from the papilla of human hair follicles and basal culture medium, containing 0.05% v/v growth factor cocktail and the presence or absence of the H. rhamnoides hydrolyzate to be tested, was centrifuged for 5 minutes at 200×g to form aggregates. Control conditions were produced by adding 0.05% v/v growth factor cocktail (ethanol EtOH control) and adding capsaicin (10 μm) as a cell sensitizer (capsaicin control) to the basal culture medium. The aggregates were incubated at a temperature of 37° C. under controlled atmosphere (5% CO2 and 95% relative humidity). The aggregates were rinsed in buffered saline solution (PBS) and the cells were separated by incubation in a mixture of proteases (collagenase A, trypsin) with EDTA. A portion of the suspended cells was taken up in PBS for flow cytometry analysis. The cell count and autofluorescence are the two parameters measured. Autofluorescence is a direct parameter easily measured and used as a marker of cell senescence ([…] et al. 1982). The cell count is an indirect parameter of the growth potential of the hair follicle. […] These two parameters were measured according to the suppliers' instructions (CyQuant NF Cell proliferation Assay Kit C35006, Invitrogen and Bioluminescence Assay Kit CLS II Roche 11699695001, Sigma-Aldrich).

[2] = test system: fibroblasts from the papilla of human hair follicles; assay: ATP production by papilla fibroblasts grown as aggregates; settings: capsaicin 10 μM
Protocol: (§1) Materials and method: A suspension composed of fibroblasts from the papilla of human hair follicles and basal culture medium, containing 0.05% v/v growth factor cocktail and the presence or absence of the H. rhamnoides hydrolyzate to be tested, was centrifuged for 5 minutes at 200×g to form aggregates. Control conditions were produced by adding 0.05% v/v growth factor cocktail (ethanol EtOH control) and adding capsaicin (10 μm) as a cell sensitizer (capsaicin control) to the basal culture medium. The aggregates were incubated at a temperature of 37° C. under controlled atmosphere (5% CO2 and 95% relative humidity). The aggregates were rinsed in buffered saline solution (PBS) and the cells were separated by incubation in a mixture of proteases (collagenase A, trypsin) with EDTA. A portion of the suspended cells was taken up in PBS for flow cytometry analysis. The cell count and autofluorescence are the two parameters measured. Autofluorescence is a direct parameter easily measured and used as a marker of cell senescence ([…] et al. 1982). The cell count is an indirect parameter of the growth potential of the hair follicle. Another portion of cells was used for analysis of the cell DNA content and ATP production rate. These two parameters were measured according to the suppliers' instructions (CyQuant NF Cell proliferation Assay Kit C35006, Invitrogen and Bioluminescence Assay Kit CLS II Roche 11699695001, Sigma-Aldrich).

[3] = test system: fibroblasts from the papilla of human hair follicles; assay: Flow cytometry of papilla fibroblasts grown as aggregates (number, granularity, autofluorescence); settings: capsaicin 10 μM; Control (EtOH) = 100
Protocol: as §1

[4] = test system: Human follicles; assay: Ex vivo hair shaft elongation of cultured follicles; settings: capsaicin (10 μm)
Protocol: Materials and method: Human follicles were cultured ex vivo in complete growth medium containing 0.5 μg/ml insulin, and treated with capsaicin […]. The latter molecule is used as an agent causing slowing of follicle growth. A control condition without capsaicin treatment was produced. Capsaicin-sensitized follicles were treated or not with 0.03% (w/v) H. rhamnoides hydrolyzate. Each culture condition was evaluated on […] cultured in isolation (n=10). The follicles were incubated at 37° C. in the presence of 5% CO2. The culture medium was renewed three times a week for approximately 2 weeks. The elongation of the hair shafts of the cultured follicles was obtained from photographs taken on different days. The hair length was evaluated by image analysis (Image J) and presented in μm as a mean±standard error.

SMILES: COc1cc(CNC(=O)CCCC/C=C/C(C)C)ccc1O [Capsaicin, capsaicin]
- amount of DNA % deviation vs control [1]: −77%
- amount of DNA MEAN ([1]; EtOH control = 100): 23
- ATP production % Activity [2]: −76%
- reduction of the production of ATP relative to the control (ethanol) [2]: 76%
- ATP production MEAN ([2]; EtOH control = 100): 24
- Autofluorescence (%) [3]: 235%
- Granularity (%) [3]: 217%
- Number of cells (%) [3]: 28%
- hair elongation MEAN (μm) ([4]; Day 0): 0 μm
- hair elongation MEAN (μm) ([4]; Day 6): 806 μm
- hair elongation MEAN (μm) ([4]; Day 8): 861 μm
- hair elongation MEAN (μm) ([4]; Day 11): 869 μm
- hair elongation MEAN (μm) ([4]; Day 13): 938 μm
- hair elongation MEAN (μm) ([4]; Day 15): 936 μm
